Laboratory results taken from patent US4539402A, “Quinazolinone derivatives” (Troponwerke GmbH & Co., priority 1982, dated 1985).
Read-outs that look alike come from different tables or passages of the source.

Tests used:
Type in all cases: in vivo
orientation motility = assay: influence on orientation motility in mice (sedative action); details: Mus musculus, po, read-out: ED50 (influence on orientation motility, sedative action)
Description: Influence on orientation motility in mice was tested to determine the sedative action; an ED50 of 0.5 mg/kg perorally was found for the compound of Example 4.

[1] = Randall-Selitto test (analgesic action); details: Rattus norvegicus, po; perorally, rats
carrageenan oedema = assay: antiphlogistic action, carrageenan oedema (modified method of Winter et al.); details: po; peroral; pure λ-carrageenan as 0.25% suspension in physiological saline
Description: Exp. Biol. Med. 111, 544 (1962), with the modification that pure λ-carrageenan as a 0.25% strength suspension in physiological saline solution was used for oedema provocation. The following ED50 values, for example, were determined using this procedure: […]

[2] = benzoquinone test (analgesic action); details: Mus musculus, po; perorally; mice

SMILES | ED50 (carrageenan oedema) | ED50 (orientation motility) | also measured
O=C1c2ccccc2N(c2cccc([N+](=O)[O-])c2)C2=NCCN12 [Example 4, 10-(3-Nitrophenyl)-2,3-dihydroimidazo-[2,1-b]-quinazolin-5(10H)-one] | 1.3 mg/kg |  | ED50 (orientation motility; perorally, mice): 0.5 mg/kg; ED50 [1]: 3.4 mg/kg; ED50 [2]: 3.1 mg/kg
O=C1c2ccccc2N(c2cccc(C(F)(F)F)c2)C2=NCCN12 [Example 5, 10-(3-Trifluoromethylphenyl)-2,3-dihydroimidazo-[2,1-b]-quinazolin-5(10H)-one] | 25.2 mg/kg |  | 
Nc1cccc(N2C3=NCCN3C(=O)c3ccccc32)c1 [Example 9, 10-(3-Aminophenyl)-2,3-dihydroimidazo-[2,1-b]-quinoazolin-5(10H)-one] | 3.1 mg/kg |  | 
CN(C)CCCN1c2ccccc2Sc2ccc(Cl)cc21 [chlorpromazine] |  | 3.05 mg/kg | 
CN1C(=O)CN=C(c2ccccc2)c2cc(Cl)ccc21 [diazepam] |  | 2.8 mg/kg | 
